Columns and labels:
[1] = target: T1, His-VAO (vanillyl alcohol oxidase) (Penicillium simplicissimum, UniProt P56216); assay: flavin absorption spectrum; trichloroacetic acid precipitation; format: binding; conditions: covalent; co-purified
T1 construct: gene VAOA; N-terminal 6xHis tag plus single Gly, tag kept; codon-optimised, E. coli BL21; covalent FAD; VAO predominantly octameric

[2] = target: T2, EUGO-His (eugenol oxidase) (Rhodococcus jostii, UniProt Q0SBK1); assay: as above; format: binding; conditions: covalent; co-purified
T2 construct: gene RHA1_ro03282; E. coli TOP10; covalent FAD; EUGO dimeric
T2 sequence (Q0SBK1 1-526): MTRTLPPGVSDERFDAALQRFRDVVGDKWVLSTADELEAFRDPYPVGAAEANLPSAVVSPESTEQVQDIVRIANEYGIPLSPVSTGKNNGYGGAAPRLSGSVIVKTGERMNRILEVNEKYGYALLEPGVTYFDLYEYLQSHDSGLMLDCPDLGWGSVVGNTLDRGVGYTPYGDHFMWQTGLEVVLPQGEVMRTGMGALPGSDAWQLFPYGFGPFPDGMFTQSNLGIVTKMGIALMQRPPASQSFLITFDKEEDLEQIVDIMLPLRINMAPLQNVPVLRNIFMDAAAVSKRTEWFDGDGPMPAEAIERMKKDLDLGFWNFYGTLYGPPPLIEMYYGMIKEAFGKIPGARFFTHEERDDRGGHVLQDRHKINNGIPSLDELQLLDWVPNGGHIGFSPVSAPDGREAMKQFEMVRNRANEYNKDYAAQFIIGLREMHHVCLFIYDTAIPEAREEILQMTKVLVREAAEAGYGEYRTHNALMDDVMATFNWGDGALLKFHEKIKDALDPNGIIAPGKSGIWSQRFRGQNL

T1 sequence (P56216 whole entry): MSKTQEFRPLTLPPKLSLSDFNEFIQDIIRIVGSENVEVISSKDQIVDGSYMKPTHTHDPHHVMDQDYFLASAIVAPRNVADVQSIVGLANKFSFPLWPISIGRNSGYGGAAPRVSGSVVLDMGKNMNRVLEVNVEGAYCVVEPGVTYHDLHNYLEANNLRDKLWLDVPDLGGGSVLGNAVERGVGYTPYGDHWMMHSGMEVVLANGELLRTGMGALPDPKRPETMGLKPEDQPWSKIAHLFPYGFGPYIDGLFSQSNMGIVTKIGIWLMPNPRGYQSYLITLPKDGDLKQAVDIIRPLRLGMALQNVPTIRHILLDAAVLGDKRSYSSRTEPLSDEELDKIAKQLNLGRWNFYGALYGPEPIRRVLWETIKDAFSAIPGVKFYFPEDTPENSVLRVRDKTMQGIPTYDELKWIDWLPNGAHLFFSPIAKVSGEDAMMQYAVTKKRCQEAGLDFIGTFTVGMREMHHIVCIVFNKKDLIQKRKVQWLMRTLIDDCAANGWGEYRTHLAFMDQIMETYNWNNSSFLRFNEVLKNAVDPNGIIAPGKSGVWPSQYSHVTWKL

Structure (SMILES): Cc1cc2nc3c(=O)[nH]c(=O)nc-3n(C[C@H](O)[C@H](O)[C@H](O)COP(=O)(O)OP(=O)(O)OC[C@H]3O[C@@H](n4cnc5c(N)ncnc54)[C@H](O)[C@@H]3O)c2cc1C [FAD]
- flavin absorption spectrum; trichloroacetic acid precipitation [1]: demonstrating that the flavin cofactor is covalently bound to the protein
- flavin absorption spectrum; trichloroacetic acid precipitation [2]: demonstrating that the flavin cofactor is covalently bound to the protein

Reference: PMC6017454, “A Xylenol Orange-Based Screening Assay for the Substrate Specificity of Flavin-Dependent para-Phenol Oxidases” (Molecules : A Journal of Synthetic Chemistry and Natural …, 2018)
